According to the NIST ThermoML archive (doi:10.1016/j.jct.2016.03.026):

Test: xn = mol fraction of the nth substance listed
Details: Fluid (supercritical or subcritical phases), x1 = 0.97; for mass density: Vibrating tube method; for speed of sound: 293.13 K, Frequency=5 MHz, Pulse-echo method

O=C=O [carbon dioxide] + CO
Details | mass density [kg/m3]
283.15 K, 16550 kPa | 963.02
283.15 K, 16575 kPa | 963.18
283.15 K, 16600 kPa | 963.26
283.15 K, 16625 kPa | 963.43
283.15 K, 16650 kPa | 963.51
283.15 K, 16675 kPa | 963.66
283.15 K, 16700 kPa | 963.77
283.15 K, 16725 kPa | 963.92
283.15 K, 16750 kPa | 964
283.15 K, 16775 kPa | 964.16
283.15 K, 16800 kPa | 964.28
283.15 K, 16825 kPa | 964.4
283.15 K, 16850 kPa | 964.49
283.15 K, 16875 kPa | 964.65
283.15 K, 16900 kPa | 964.79
283.15 K, 16925 kPa | 964.88
283.15 K, 16950 kPa | 964.99
283.15 K, 16975 kPa | 965.14
283.15 K, 17000 kPa | 965.28
283.15 K, 17025 kPa | 965.37
283.15 K, 17050 kPa | 965.46
283.15 K, 17075 kPa | 965.62
283.15 K, 17100 kPa | 965.75
283.15 K, 17125 kPa | 965.87
283.15 K, 17150 kPa | 965.97
283.15 K, 17175 kPa | 966.11
283.15 K, 17200 kPa | 966.25
283.15 K, 17225 kPa | 966.36
283.15 K, 17250 kPa | 966.51
283.15 K, 17275 kPa | 966.6
283.15 K, 17300 kPa | 966.7
283.15 K, 17325 kPa | 966.85
283.15 K, 17350 kPa | 966.97
283.15 K, 17375 kPa | 967.09
283.15 K, 17400 kPa | 967.17
283.15 K, 17425 kPa | 967.31
283.15 K, 17450 kPa | 967.41
283.15 K, 17475 kPa | 967.57
283.15 K, 17500 kPa | 967.66
283.15 K, 17525 kPa | 967.82
283.15 K, 17550 kPa | 967.9
283.15 K, 17575 kPa | 968.06
283.15 K, 17600 kPa | 968.15
283.15 K, 17625 kPa | 968.24
283.15 K, 17650 kPa | 968.4
283.15 K, 17675 kPa | 968.48
283.15 K, 17700 kPa | 968.64
283.15 K, 17725 kPa | 968.78
283.15 K, 17750 kPa | 968.88
283.15 K, 17775 kPa | 968.98
283.15 K, 17800 kPa | 969.12
283.15 K, 17825 kPa | 969.25
283.15 K, 17850 kPa | 969.37
283.15 K, 17875 kPa | 969.46
283.15 K, 17900 kPa | 969.6
283.15 K, 17925 kPa | 969.69
283.15 K, 17950 kPa | 969.8
283.15 K, 17975 kPa | 969.94
283.15 K, 18000 kPa | 970.08
283.15 K, 18025 kPa | 970.18
283.15 K, 18050 kPa | 970.31
283.15 K, 18075 kPa | 970.43
283.15 K, 18100 kPa | 970.52
283.15 K, 18125 kPa | 970.66
283.15 K, 18150 kPa | 970.8
283.15 K, 18175 kPa | 970.91
283.15 K, 18200 kPa | 970.99
283.15 K, 18225 kPa | 971.16
283.15 K, 18250 kPa | 971.25
283.15 K, 18275 kPa | 971.39
283.15 K, 18300 kPa | 971.48
283.15 K, 18325 kPa | 971.57
283.15 K, 18350 kPa | 971.73
283.15 K, 18375 kPa | 971.85
283.15 K, 18400 kPa | 971.98
283.15 K, 18425 kPa | 972.05
283.15 K, 18450 kPa | 972.17
283.15 K, 18475 kPa | 972.3
283.15 K, 18500 kPa | 972.43
283.15 K, 18525 kPa | 972.54
283.15 K, 18550 kPa | 972.62
283.15 K, 18575 kPa | 972.76
283.15 K, 18600 kPa | 972.9
283.15 K, 18625 kPa | 973.03
283.15 K, 18650 kPa | 973.11
283.15 K, 18675 kPa | 973.21
283.15 K, 18700 kPa | 973.35
283.15 K, 18725 kPa | 973.46
283.15 K, 18750 kPa | 973.6
283.15 K, 18775 kPa | 973.72
283.15 K, 18800 kPa | 973.84
283.15 K, 18825 kPa | 973.96
283.15 K, 18850 kPa | 974.07
283.15 K, 18875 kPa | 974.17
283.15 K, 18900 kPa | 974.28
283.15 K, 18925 kPa | 974.41
283.15 K, 18950 kPa | 974.55
283.15 K, 18975 kPa | 974.63
283.15 K, 19000 kPa | 974.74
283.15 K, 19025 kPa | 974.9
283.15 K, 19050 kPa | 974.98
283.15 K, 19075 kPa | 975.08
283.15 K, 19100 kPa | 975.18
283.15 K, 19125 kPa | 975.31
283.15 K, 19150 kPa | 975.44
283.15 K, 19175 kPa | 975.52
283.15 K, 19200 kPa | 975.66
283.15 K, 19225 kPa | 975.76
283.15 K, 19250 kPa | 975.85
283.15 K, 19275 kPa | 976.02
283.15 K, 19300 kPa | 976.1
283.15 K, 19325 kPa | 976.18
283.15 K, 19350 kPa | 976.34
283.15 K, 19375 kPa | 976.42
283.15 K, 19400 kPa | 976.53
283.15 K, 19425 kPa | 976.66
283.15 K, 19450 kPa | 976.74
283.15 K, 19475 kPa | 976.85
283.15 K, 19500 kPa | 976.99
283.15 K, 19525 kPa | 977.1
283.15 K, 19550 kPa | 977.22
283.15 K, 19575 kPa | 977.29
283.15 K, 19600 kPa | 977.43
283.15 K, 19625 kPa | 977.51
283.15 K, 19650 kPa | 977.66
283.15 K, 19675 kPa | 977.74
283.15 K, 19700 kPa | 977.89
283.15 K, 19725 kPa | 977.97
283.15 K, 19750 kPa | 978.07
283.15 K, 19775 kPa | 978.19
283.15 K, 19800 kPa | 978.31
283.15 K, 19825 kPa | 978.42
283.15 K, 19850 kPa | 978.49
283.15 K, 19875 kPa | 978.64
283.15 K, 19900 kPa | 978.72
283.15 K, 19925 kPa | 978.84
283.15 K, 19950 kPa | 978.96
283.15 K, 19975 kPa | 979.04
283.15 K, 20000 kPa | 979.19
293.15 K, 6500 kPa | 813.14
293.15 K, 6525 kPa | 813.39
293.15 K, 6550 kPa | 813.83
293.15 K, 6575 kPa | 814.36
293.15 K, 6600 kPa | 814.85
293.15 K, 6625 kPa | 815.37
293.15 K, 6650 kPa | 815.85
293.15 K, 6675 kPa | 816.32
293.15 K, 6700 kPa | 816.75
293.15 K, 6725 kPa | 817.24
293.15 K, 6750 kPa | 817.7
293.15 K, 6775 kPa | 818.19
293.15 K, 6800 kPa | 818.69
293.15 K, 6825 kPa | 819.09
293.15 K, 6850 kPa | 819.56
293.15 K, 6875 kPa | 820.02
293.15 K, 6900 kPa | 820.51
293.15 K, 6925 kPa | 821
293.15 K, 6950 kPa | 821.45
293.15 K, 6975 kPa | 821.88
293.15 K, 7000 kPa | 822.38
293.15 K, 7025 kPa | 822.78
293.15 K, 7050 kPa | 823.25
293.15 K, 7075 kPa | 823.68
293.15 K, 7100 kPa | 824.12
293.15 K, 7125 kPa | 824.56
293.15 K, 7150 kPa | 824.97
293.15 K, 7175 kPa | 825.4
293.15 K, 7200 kPa | 825.75
293.15 K, 7225 kPa | 826.24
293.15 K, 7250 kPa | 826.63
293.15 K, 7275 kPa | 827.05
293.15 K, 7300 kPa | 827.52
293.15 K, 7325 kPa | 827.94
293.15 K, 7350 kPa | 828.35
293.15 K, 7375 kPa | 828.75
293.15 K, 7400 kPa | 829.18
293.15 K, 7425 kPa | 829.57
293.15 K, 7450 kPa | 829.96
293.15 K, 7475 kPa | 830.36
293.15 K, 7500 kPa | 830.75
293.15 K, 7525 kPa | 831.18
293.15 K, 7550 kPa | 831.58
293.15 K, 7575 kPa | 832.01
293.15 K, 7600 kPa | 832.39
293.15 K, 7625 kPa | 832.79
293.15 K, 7650 kPa | 833.16
293.15 K, 7675 kPa | 833.55
293.15 K, 7700 kPa | 833.94
293.15 K, 7725 kPa | 834.35
293.15 K, 7750 kPa | 834.76
293.15 K, 7775 kPa | 835.15
293.15 K, 7800 kPa | 835.53
293.15 K, 7825 kPa | 835.97
293.15 K, 7850 kPa | 836.36
293.15 K, 7875 kPa | 836.75
293.15 K, 7900 kPa | 837.14
293.15 K, 7925 kPa | 837.51
293.15 K, 7950 kPa | 837.87
293.15 K, 7975 kPa | 838.26
293.15 K, 8000 kPa | 838.63
293.15 K, 8025 kPa | 838.99
293.15 K, 8050 kPa | 839.37
293.15 K, 8075 kPa | 839.71
293.15 K, 8100 kPa | 840.15
293.15 K, 8125 kPa | 840.47
293.15 K, 8150 kPa | 840.87
293.15 K, 8175 kPa | 841.23
293.15 K, 8200 kPa | 841.62
293.15 K, 8225 kPa | 841.97
293.15 K, 8250 kPa | 842.39
293.15 K, 8275 kPa | 842.74
293.15 K, 8300 kPa | 843.12
293.15 K, 8325 kPa | 843.46
293.15 K, 8350 kPa | 843.86
293.15 K, 8375 kPa | 844.16
293.15 K, 8400 kPa | 844.56
293.15 K, 8425 kPa | 844.93
293.15 K, 8450 kPa | 845.3
293.15 K, 8475 kPa | 845.64
293.15 K, 8500 kPa | 845.98
293.15 K, 8525 kPa | 846.37
293.15 K, 8550 kPa | 846.75
293.15 K, 8575 kPa | 847.1

Details | speed of sound [m/s]
20010 kPa | 624.7
24930 kPa | 674.5
29990 kPa | 718.7
34940 kPa | 755.3
39990 kPa | 791.4
44940 kPa | 822.9
49970 kPa | 852.5
54900 kPa | 879.8
59940 kPa | 906
64950 kPa | 930.5
69950 kPa | 953.8
74980 kPa | 976
80020 kPa | 997.6
90010 kPa | 1037.3
100010 kPa | 1074.3
109950 kPa | 1108.7
120040 kPa | 1141.7
140050 kPa | 1201.9
160040 kPa | 1256.5
178780 kPa | 1303.9
